# Values quoted from earlier work in patent US20210195917A1, “COMPOSITIONS AND RELATED METHODS FOR AGRICULTURE” (priority 2017, published 2021).
# B1: NCR335: cationic NCR peptide of Medicago truncatula, SEQ ID NO: 65 (peptide, listed as Medicago truncatula)
# chain: MQIGKNMVETPKLDYVIIFFFLYFFFRQMIILRLNTTFRPLNFKMLRFWGQNRNIMKHRGQKVHFSLILSDCKTNKDCPKLRRANVRCRKSYCVPI
# Key:
# bees = conditions: in vivo
# target bacterial strains = conditions: against its target bacterial strains
# [1] = tested on: gram-negative and gram-positive bacteria as well as fungi
molecule,measurement,setting,value
COP(=S)(OC)Oc1ccc([N+](=O)[O-])c(C)c1 [fenitrothion],toxicity to bees,bees,toxic to bees
nisin,concentration showing antimicrobial activity,target bacterial strains,single-digit nanomolar
botrycidin AJ1316,antifungal activities,fungi,antifungal activities
B1,antimicrobial activities,[1],effective
